Where two headings read alike, the source gives them in different places.
How the values were obtained:
[1] = target: T1, EGFR T790M/L858R Ba/F3 cell line (Homo sapiens, UniProt P00533, T790M/L858R, cells depend on it); test: Ba/F3 cell proliferation (MTS assay); assay type: cell-based, murine; conditions: for Remaining cell proliferation activity (% of control): EGFR T790M/L858R Ba/F3
T1 construct: The constructs were shuttled into the retroviral vector JP1540 using the BD Creator™ System (BD Biosciences)
Experimental: The EGFR mutant L858R, Del E746_A750, L858R/T790M, DelE746_A750/T790M, L858R/T790M/C797S and Del/T790M/C797S Ba/F3 cells were previously described (Zhou et al., Nature 462, (2009), 1070-1074). All cell lines were maintained in RPMI 1640 (Cellgro; Mediatech Inc., Herndon, Calif.) supplemented with 10% FBS 100 units/mL penicillin, 100 units/mL streptomycin, and 2 mM glutamine. L858R cells were maintained in ACL-4 media (Invitrogen, Carlsbad, Calif.) supplemented with 5% FBS, 100 units/mL penicillin, 100 units/mL streptomycin, and 2 mM glutamine. The EGFR 1941R mutation was introduced via site directed mutagenesis using the Quick Change Site-Directed Mutagenesis kit (Stratagene; La Jolla, Calif.) according to the manufacturer's instructions. All constructs were confirmed by DNA sequencing. The constructs were shuttled into the retroviral vector JP1540 using the BD Creator™ System (BD Biosciences). Ba/F3 cells were infected with retrovirus and according to standard protocols, as described previously (Zhou 2009). Stable clones were obtained by selection in puromycin (2 μg/ml).
Growth and inhibition of growth was assessed by MTS assay and was performed according to previously established methods (Zhou 2009). The MTS assay is a colorimetric method for determining the number of viable cells that is based on the bioreduction of MTS by cells to a formazan product that is soluble in cell culture medium and can be detected spectrophotometrically. […] All experimental points were set up in six wells and all experiments were repeated at least three times. […] The curves were fitted using anon-linear regression model with a sigmoidal dose response.

[2] = target: T2, recombinant EGFR T790M/L858R kinase (Homo sapiens, UniProt P00533, L858R/T790M); test: HTRF-based EGFR biochemical assay
T2 construct: Constructs spanning residues 696-1022 of the human EGFR; GST (cleaved yes); made in house; host or cells: Sf9 insect cells (pTriEX system)
Experimental: Constructs spanning residues 696-1022 of the human EGFR (including wild type and L858R, L858R/T790M, T790M, and T790M/V948R mutant sequences) were prepared in a GST-fusion format using the pTriEX system (Novagen) for expression in Sf9 insect cells essentially as described (Yun et al., PNAS 105, 2070-2075 (2008); Yun et al., Cancer Cell 11, 217-227 (2007)). EGFR kinase proteins were purified by glutathione-affinity chromatography followed by size-exclusion chromatography after cleavage with TEV or thrombin to remove the GST fusion partner following established procedures.
EGFR biochemical assays were carried out using a homogeneous time-resolved fluorescence (HTRF) assay as described previously. […] All reactions were carried out at room temperature in white ProxiPlate™ 384-well Plus plates (PerkinElmer) and were quenched with 5 μL of 0.2 M EDTA at 60 min.

[3] = absence of cetuximab, read-out: Ba/F3 cellular activity (EC50) T790M/L858R
[4] = compound at 1 μM in the presence of 1 μg/mL cetuximab
[5] = read-out: Ba/F3 cellular activity (EC50) T790M/L858R + Cetuximab (1 μg/mL), presence of 1 μg/mL cetuximab

T1 sequence (P00533 whole entry T790M/L858R): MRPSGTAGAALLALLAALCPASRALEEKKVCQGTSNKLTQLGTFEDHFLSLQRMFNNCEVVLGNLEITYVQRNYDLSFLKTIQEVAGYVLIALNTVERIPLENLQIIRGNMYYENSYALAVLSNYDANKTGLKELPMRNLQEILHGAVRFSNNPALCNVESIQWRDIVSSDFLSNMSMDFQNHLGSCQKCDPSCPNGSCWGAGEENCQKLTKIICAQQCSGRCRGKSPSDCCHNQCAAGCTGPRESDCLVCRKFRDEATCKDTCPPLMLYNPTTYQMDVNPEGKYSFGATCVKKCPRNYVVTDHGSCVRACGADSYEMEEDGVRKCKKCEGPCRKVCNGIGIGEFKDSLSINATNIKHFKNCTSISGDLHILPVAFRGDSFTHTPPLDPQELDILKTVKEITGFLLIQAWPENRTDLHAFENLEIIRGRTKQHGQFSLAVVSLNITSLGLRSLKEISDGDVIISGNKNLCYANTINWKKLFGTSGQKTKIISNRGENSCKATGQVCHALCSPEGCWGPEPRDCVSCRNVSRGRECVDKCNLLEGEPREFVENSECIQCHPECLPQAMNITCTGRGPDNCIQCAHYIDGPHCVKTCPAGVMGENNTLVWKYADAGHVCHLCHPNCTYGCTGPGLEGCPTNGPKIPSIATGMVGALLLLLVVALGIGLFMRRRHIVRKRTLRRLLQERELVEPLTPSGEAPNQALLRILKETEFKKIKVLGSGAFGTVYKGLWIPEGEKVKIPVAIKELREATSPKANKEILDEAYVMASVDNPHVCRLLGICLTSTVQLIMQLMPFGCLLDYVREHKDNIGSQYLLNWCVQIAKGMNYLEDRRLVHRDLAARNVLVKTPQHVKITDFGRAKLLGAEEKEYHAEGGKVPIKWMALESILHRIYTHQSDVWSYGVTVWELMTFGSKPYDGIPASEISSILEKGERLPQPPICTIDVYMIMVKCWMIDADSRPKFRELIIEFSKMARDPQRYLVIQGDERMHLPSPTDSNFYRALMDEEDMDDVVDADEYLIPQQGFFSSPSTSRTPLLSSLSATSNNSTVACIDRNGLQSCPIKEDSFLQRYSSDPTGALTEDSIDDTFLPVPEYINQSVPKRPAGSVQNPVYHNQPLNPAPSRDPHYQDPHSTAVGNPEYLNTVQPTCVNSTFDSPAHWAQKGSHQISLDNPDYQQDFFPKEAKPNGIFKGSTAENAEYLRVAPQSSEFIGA
T2 sequence (P00533 696-1022 T790M/L858R): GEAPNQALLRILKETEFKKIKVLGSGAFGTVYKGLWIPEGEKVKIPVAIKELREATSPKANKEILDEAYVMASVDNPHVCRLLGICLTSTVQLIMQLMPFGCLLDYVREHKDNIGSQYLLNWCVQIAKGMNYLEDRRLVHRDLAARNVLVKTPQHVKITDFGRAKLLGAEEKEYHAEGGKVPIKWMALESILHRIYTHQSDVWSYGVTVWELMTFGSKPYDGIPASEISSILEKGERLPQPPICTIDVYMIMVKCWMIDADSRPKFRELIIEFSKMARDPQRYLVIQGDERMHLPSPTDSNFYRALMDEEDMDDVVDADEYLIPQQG

O=C1c2cc(-c3ccc(N4CCNCC4)cc3)ccc2Nc2ccc(F)cc2N1Cc1ccccc1 [I-1, 10-Benzyl-8-fluoro-2-(4-(piperazin-1-yl)phenyl)-5,10-dihydro-11H-dibenzo[b,e][1,4]diazepin-11-one] was tested, and the EC50 [1, 3] was no less than 750 nM, the “Remaining cell proliferation activity (% of control)” value [1, 4] was “B (25 ≤ B < 50)” and the “Remaining cell proliferation activity (% of control)” value ([1]; compound at 1 μM) was “D (75 ≤ D)”. The EC50 [1, 5] was 500 to 750 nM and the IC50 [2] was less than 250 nM.

In the case of O=C1c2cc(-c3ccc4[nH]ccc4c3)ccc2Nc2ccc(F)cc2N1Cc1ccccc1 [I-2], the EC50 [1, 3] is reported as no less than 750 nM, the “Remaining cell proliferation activity (% of control)” value [1, 4] is reported as “B (25 ≤ B < 50)” and the “Remaining cell proliferation activity (% of control)” value ([1]; compound at 1 μM) is reported as “D (75 ≤ D)”. For the same molecule, the EC50 [1, 5] was less than 250 nM.

For CN1CCC(n2cc(-c3ccc4c(c3)C(=O)N(Cc3ccccc3)c3cc(F)ccc3N4)cn2)CC1 [I-3], the EC50 [1, 3] was no less than 750 nM, the “Remaining cell proliferation activity (% of control)” value [1, 4] was “B (25 ≤ B < 50)” and the “Remaining cell proliferation activity (% of control)” value ([1]; compound at 1 μM) was “D (75 ≤ D)”. For the same molecule, the EC50 [1, 5] was less than 250 nM.

O=C1c2cc(-c3ccc(-c4cn[nH]c4)cc3)ccc2Nc2ccc(F)cc2N1Cc1ccccc1 [I-4] was tested, and the EC50 [1, 3] was no less than 750 nM, the “Remaining cell proliferation activity (% of control)” value [1, 4] was “A (0 ≤ A < 25)” and the “Remaining cell proliferation activity (% of control)” value ([1]; compound at 1 μM) was “D (75 ≤ D)”. It also gave an EC50 [1, 5] of 250 to 500 nM.

In the case of O=C1c2cc(-c3ccc(N4CCNCC4)cc3)ccc2Nc2ccc(F)cc2N1c1ccccc1 [I-5], the EC50 [1, 3] is reported as no less than 750 nM, the “Remaining cell proliferation activity (% of control)” value [1, 4] is reported as “D (75 ≤ D)” and the “Remaining cell proliferation activity (% of control)” value ([1]; compound at 1 μM) is reported as “D (75 ≤ D)”. It also gave an EC50 [1, 5] of no less than 750 nM.

O=C1c2cc(-c3ccc(N4CCNCC4)cc3)ccc2Nc2ccc(F)cc2N1Cc1cccnc1 [I-6] was tested, and the EC50 [1, 3] was no less than 750 nM, the “Remaining cell proliferation activity (% of control)” value [1, 4] was “D (75 ≤ D)” and the “Remaining cell proliferation activity (% of control)” value ([1]; compound at 1 μM) was “D (75 ≤ D)”. For the same molecule, the EC50 [1, 5] was no less than 750 nM.

For O=C1c2cc(-c3ccc(N4CCNCC4)cc3)ccc2Nc2ccc(F)cc2N1Cc1nccs1 [I-7], the EC50 [1, 3] was no less than 750 nM, the “Remaining cell proliferation activity (% of control)” value [1, 4] was “C (50 ≤ C < 75)” and the “Remaining cell proliferation activity (% of control)” value ([1]; compound at 1 μM) was “D (75 ≤ D)”. For the same molecule, the EC50 [1, 5] was no less than 750 nM.

O=C1c2cc(-c3ccc4[nH]ccc4c3)ccc2Nc2ccc(F)cc2N1c1ccccc1 [I-8] was tested, and the EC50 [1, 3] was no less than 750 nM, the “Remaining cell proliferation activity (% of control)” value [1, 4] was “D (75 ≤ D)” and the “Remaining cell proliferation activity (% of control)” value ([1]; compound at 1 μM) was “D (75 ≤ D)”. The EC50 [1, 5] was no less than 750 nM.

With O=C1c2cc(-c3ccc4[nH]ccc4c3)ccc2Nc2ccc(F)cc2N1Cc1cccnc1 [I-9] the EC50 [1, 3] was no less than 750 nM, the “Remaining cell proliferation activity (% of control)” value [1, 4] was “D (75 ≤ D)” and the “Remaining cell proliferation activity (% of control)” value ([1]; compound at 1 μM) was “D (75 ≤ D)”. The EC50 [1, 5] was no less than 750 nM.

O=C1c2cc(-c3ccc4[nH]ccc4c3)ccc2Nc2ccc(F)cc2N1Cc1nccs1 [I-10] was tested, and the EC50 [1, 3] was no less than 750 nM, the “Remaining cell proliferation activity (% of control)” value [1, 4] was “D (75 ≤ D)” and the “Remaining cell proliferation activity (% of control)” value ([1]; compound at 1 μM) was “D (75 ≤ D)”. The EC50 [1, 5] was no less than 750 nM.

With O=C1c2cc(-c3ccc(N4CCNCC4)cc3)ccc2Nc2ccccc2N1Cc1ccccc1 [I-11] the EC50 [1, 3] was no less than 750 nM, the “Remaining cell proliferation activity (% of control)” value [1, 4] was “B (25 ≤ B < 50)” and the “Remaining cell proliferation activity (% of control)” value ([1]; compound at 1 μM) was “D (75 ≤ D)”. For the same molecule, the EC50 [1, 5] was 250 to 500 nM.

O=C1c2cc(-c3ccc(N4CCNCC4)cc3)ccc2Nc2ncc(F)cc2N1Cc1ccccc1 [I-12] was tested, and the EC50 [1, 3] was no less than 750 nM and the EC50 [1, 5] was no less than 750 nM.

Work on O=C1c2cc(-c3ccc(N4CCNCC4)cc3)ccc2Nc2ccncc2N1Cc1ccccc1 [I-13] yielded an EC50 [1, 3] of no less than 750 nM and an EC50 [1, 5] of no less than 750 nM.

In the case of Nc1ccc2c(c1)N(Cc1ccccc1)C(=O)c1cc(-c3ccc4[nH]ccc4c3)ccc1N2 [I-14], the EC50 [1, 3] is reported as no less than 750 nM and the EC50 [1, 5] is reported as no less than 750 nM.

CC(=O)Nc1ccc2c(c1)N(Cc1ccccc1)C(=O)c1cc(-c3ccc4[nH]ccc4c3)ccc1N2 [I-15] gave an EC50 [1, 3] of no less than 750 nM and an EC50 [1, 5] of no less than 750 nM.

In the case of CCC(=O)Nc1ccc2c(c1)N(Cc1ccccc1)C(=O)c1cc(-c3ccc4[nH]ccc4c3)ccc1N2 [I-16], the EC50 [1, 3] is reported as 250 to 500 nM and the EC50 [1, 5] is reported as 250 to 500 nM.

CN1CCN(c2ccc(-c3ccc4c(c3)C(=O)N(Cc3ccccc3)c3cc(F)ccc3N4)cc2)CC1 [I-17] showed an IC50 [2] of less than 250 nM.

Molecule O=C1c2cc(-c3ccc(N4CCNCC4)cc3)ccc2Nc2ccc(F)cc2N1Cc1cccc2cc[nH]c12 [I-18] has an EC50 [1, 3] of no less than 750 nM and an EC50 [1, 5] of less than 250 nM.

In the case of O=C1c2cc(-c3ccc(N4CCNCC4)cc3)ccc2Nc2ccc(F)cc2N1Cc1ccc2cc[nH]c2c1 [I-19], the EC50 [1, 3] is reported as no less than 750 nM and the EC50 [1, 5] is reported as no less than 750 nM.

CN1CCC(n2cc(-c3ccc4c(c3)C(=O)N(Cc3cccc(F)c3)c3cc(F)ccc3N4)cn2)CC1 [I-22] gave an EC50 [1, 3] of no less than 750 nM and an EC50 [1, 5] of no less than 750 nM.

With CN1CCC(n2cc(-c3ccc4c(c3)C(=O)N(Cc3cccc(Cl)c3)c3cc(F)ccc3N4)cn2)CC1 [I-23] the EC50 [1, 3] was no less than 750 nM and the EC50 [1, 5] was no less than 750 nM.

CN1CCC(n2cc(-c3ccc4c(c3)C(=O)N(Cc3cc(F)cc(F)c3)c3cc(F)ccc3N4)cn2)CC1 [I-24] showed an EC50 [1, 3] of no less than 750 nM and an EC50 [1, 5] of no less than 750 nM.

For CN1CCC(n2cc(-c3ccc4c(c3)C(=O)N(Cc3cccc5cc[nH]c35)c3cc(F)ccc3N4)cn2)CC1 [I-25], the EC50 [1, 3] was no less than 750 nM and the EC50 [1, 5] was no less than 750 nM.

Reference: US20200377501A1, “DEGRADERS OF EGFR AND METHODS OF USE THEREOF” (DANA-FARBER CANCER INSTITUTE, INC., priority 2018, published 2020)
